These results are taken from patent US9241941B2, “Methods for treatment of lymphomas with mutations in cell cycle genes” (priority 2012, dated 2016).

For test [1], the system named is cell lines that carry the translocation t(14;18) (DoHH2, Su-DHL-6, Su-DHL-16, Ly8). The experiment in a line: Viability / apoptosis of human lymphoma lines after in vitro treatment. The class given is cell-based. As to conditions: for induction of apoptosis / cell death in vitro, single agent: FL-derived cell lines, 1 μM; for selectivity for cell lines carrying translocation t(14;18): panel of human lymphoma lines, viability after 24 h.
Procedure: Cell culture, cell cycle and viability assays. Lymphoma cell lines DoHH2, Ly-8, Su-DHL-6, Su-DHL-16, Su-DHL-8 and Su-DHL-10 were maintained in RPMI 1640 with 10% fetal bovine serum, 1% L-Glutamine and 1% penicillin/streptomycin. […] Briefly, cells were seed at 5×10^5 per mL and they were treated with PD-0332991 and/or ABT-737 and/or Obatoclax. After 24 h of treatment cell viability was assessed using CellTiter-Glo reagent (Promega).

A further test deals with xenografted DoHH2 tumors. The experiment in a line: DoHH2 xenograft treatment study. The class given is in vivo, NOD/SCID mice. As to conditions: for course of tumors after the treatment course / durability of response / tumor growth during the treatment course: PD 150 mg/kg p.o., ABT 50 mg/kg i.v., alternate days, days 1-14. Here is the method: Xenografts and treatment studies. Xenograft mice were generated as described (Schatz et al., J Exp Med 208:1799-1807 (2011)); briefly, s.c. injection of 5 Mio DoHH2 or SU-DHL-8 human lymphoma cells mixed with matrigel (BD Bioscience, 354230) into the flanks of NOD/SCID (NOD.CB17-Prkdc^scid/J) mice. […] The control animals were treated with 50 mmol/L sodium lactate (pH4), PTD solution and 5% of Dextrose in water solution respectively. Tumors were weighed and volumes were measured twice weekly.
The translocation t(14;18) is the cytogenetic hallmark of FL and promotes lymphoma cell survival by activating the anti-apoptotic BCL2 protein. BH3 mimetic drugs like ABT-737 block BCL2 function by inserting into the BH3-binding groove of anti-apoptotic BCL2 proteins (Oltersdorf et al., Nature 435:677-681 (2005)).

Test [2] has as its system DoHH2, Su-DHL6, Su-DHL-16, and Ly8 cells. The experiment in a line: Cell cycle assay in human lymphoma cell lines. The class given is cell-based.
Procedure: Cell culture, cell cycle and viability assays. Lymphoma cell lines DoHH2, Ly-8, Su-DHL-6, Su-DHL-16, Su-DHL-8 and Su-DHL-10 were maintained in RPMI 1640 with 10% fetal bovine serum, 1% L-Glutamine and 1% penicillin/streptomycin. Human lymphoma cell lines treated with PD-0332991 and Obatoclax were analyzed for cell viability and cell cycle assays. Briefly, cells were seed at 5×10^5 per mL and they were treated with PD-0332991 and/or ABT-737 and/or Obatoclax. After 24 h of treatment cell viability was assessed using CellTiter-Glo reagent (Promega). Cell cycle assay based on uptake of DNA staining dye using Cell Cycle Reagent assays (cat. 4700-0169 from Guava Technologies, Millipore) was performed following to manufacturer instructions.
In test [3] the test system is RB phosphorylation (Ser 780). The experiment in a line: Immunoblot for RB phosphorylation in treated lymphoma cells. Format: cell-based, human. As to conditions: DoHH2, Su-DHL6, Su-DHL-16, Ly8 cells treated with PD-0332991. (Immunoblotting shows a protein as a band on a membrane.)
Procedure: Western blot analysis. Immunoblots were performed from whole cell lysates or tissue samples as described (Steidl et al., Nature 471:377-381 (2011)). Briefly, 30 μg of protein/sample were resolved on SDS-PAGE gels and transferred to Immobilon-P-membranes (Millipore). Antibodies were against Rb (Cell Signaling cat #9309), Phospho-Rb S780 (Cell Signaling cat #3590), Phospho-Rb S795 (Cell Signaling cat #7986), CDK4 (Cell Signaling cat #2906), CyclinD3 (Cell Signaling cat #2936), Cyclin D1 (Cell Signaling cat #2926), Cyclin D2 (Cell Signaling cat #2924) p16 (Santa Cruz Biotechnology cat # sc 1207), Caspase 3 (Cell Signaling cat #9662) Tubulin (1:5000; Sigma, B-5-1-2). Enhanced chemiluminescence was used for detection (ECL, Amersham).
The test system of another test is vavBcl2/CDK4 lymphoma. The test can be described thus: Treatment of primary murine vavBcl2/CDK4 lymphomas in vivo. Particulars: lymphocyte counts.
The next test relates to vavBcl2/c-MYC lymphomas. The experiment in a line: Treatment of primary murine vavBcl2/c-MYC lymphomas in vivo. The method, then: Generation of mice. The vavP Bcl2 mouse model of FL (Lowe et al., Nature 432:307-315 (2004)) was adapted to adoptive transfer of retrovirally transduced HPCs^1. Data were analyzed in Kaplan-Meier format using the log-rank (Mantel-Cox) test for statistical significance. H&E, Ki67, TUNEL, P-RB, and surface marker analysis were as in (Staudt, N Engl J Med 356:741-742 (2007)).
Most FL cell lines are derived from transformed FLs and are carry the hallmark translocation t(14;18). These include DoHH2, Su-DHL-6, Su-DHL-16 and Ly 8 cells. These lines also have high levels of CDK4, CDK6, and phosphorylated RB (S780 and S795) (FIG. 10A) and DoHH2 cells carry a homozygous p16 deletion (Gronbaek et al., Leukemia 14:1727-1735 (2000)). To examine the effect of targeted therapies, the inventors first treated DoHH2, Su-DHL6, Su-DHL-16, and Ly8 cells with increasing doses of PD-0332991. […] Further, knockdown of either CDK4 or CDK6 alone was not sufficient for cell cycle arrest indicating functional compensation between these homologous RB kinases and the requirement to block both (FIG. 10I/J). Given the limitations of transformed FL-derived lines, the inventors also tested PD-0332991 against primary murine vavBcl2 induced lymphomas in vivo.

The structures appear in SMILES notation.

For the molecule `CN(C)CC[C@H](CSc1ccccc1)Nc1ccc(S(=O)(=O)NC(=O)c2ccc(N3CCN(Cc4ccccc4-c4ccc(Cl)cc4)CC3)cc2)cc1[N+](=O)[O-]` [ABT-737], in test [1], the “induction of apoptosis / cell death in vitro, single agent” value was “powerfully induced apoptosis and caspase cleavage”; the “selectivity for cell lines carrying translocation t(14;18)” value is listed as “selective activity against cell lines that carry the translocation t(14;18)”. For the same molecule, in the test with xenografted DoHH2 tumors, the “course of tumors after the treatment course / durability of response” value is given as “residual tumors rapidly expanded thereafter” and the “tumor growth during the treatment course” value is “somewhat restrained tumor growth”. Besides, the “cell death in tumors in vivo (caspase cleavage, TUNEL)” value in the test on xenografted DoHH2 tumors (tumors at end of treatment) is recorded as “significant cell death”.

Take `COC1=CC(c2cc3ccccc3[nH]2)=N/C1=C\c1[nH]c(C)cc1C` [Obatoclax]: in test [1], the “induction of apoptosis / cell death in vitro, single agent” value is listed as “potently induced cell death” and the “selectivity for cell lines carrying translocation t(14;18)” value is listed as “less selective for cells carrying the translocation t(14;18)”.

For the molecule `CC(=O)c1c(C)c2cnc(Nc3ccc(N4CCNCC4)cn3)nc2n(C2CCCC2)c1=O` [PD-0332991], the “cell cycle arrest after RB knockdown” value in test [2] (DoHH2 cells expressing RB shRNA, PD-0332991 1 μM) is recorded as “knockdown of RB bypassed the cell cycle arrest”. The “growth and cell cycle profile” value in test [2] (increasing doses of PD-0332991, 24 h, all four lines) is “complete growth arrest and accumulation in the G1 phase”. Besides, the “RB phosphorylation in cells” value in test [3] was “loss of RB phosphorylation”. Also, the “course of tumors after the treatment course / durability of response” value with xenografted DoHH2 tumors is “residual tumors rapidly expanded thereafter”. Further, the “tumor growth during the treatment course” value with xenografted DoHH2 tumors is recorded as “somewhat restrained tumor growth”. Besides, the “RB phosphorylation (Ser 780) in tumors in vivo” value in the test on xenografted DoHH2 tumors (immunoblot on lysates of treated tumors) was “complete loss of RB phosphorylation (Ser 780)”. Also, in the test on xenografted DoHH2 tumors (immunohistochemistry at end of treatment), the “proliferation by Ki67 in tumors in vivo” value is “slowed proliferation by Ki67”. For the same molecule, the “response of lymphoma bearing animals” value is given as “induced responses” in the test with vavBcl2/CDK4 lymphoma and “ineffective” in the test with vavBcl2/c-MYC lymphomas (histologically transformed vavBcl2/c-MYC lymphomas). The “time by which all animals succumbed to disease” value with vavBcl2/c-MYC lymphomas (vav-Bcl2/Myc tumor bearing animals treated with PD-0332991) is given as ≤ 10 days.
